Source: ChEMBL document CHEMBL1142280, “Discovery of new small molecules that influence neuroblast cell migration from the subventricular zone” (2008)
The source made the active and inactive calls. No cut-off for these calls is given here.

Legend:
[1] = (§1) Inhibition of mouse neuroblast cell migration from subventricular zone tissue explants at 63 uM after 48 hrs relative to control; assay type: functional
[2] = Inhibition of mouse neuroblast cell migration from subventricular zone tissue explants at 123 uM after 48 hrs relative to control; assay type: functional
[3] = organism: Mus musculus; experiment: Inhibition of mouse neuroblast cell migration from subventricular zone tissue explants at 12.3 uM after 48 hrs relative to control; assay type: functional
[4] = Inhibition of mouse neuroblast cell migration from subventricular zone tissue explants at 250 uM after 48 hrs relative to control
[5] = organism: Mus musculus; experiment: Inhibition of mouse neuroblast cell migration from subventricular zone tissue explants at 67 uM after 48 hrs relative to control; assay type: functional
[6] = Inhibition of mouse neuroblast cell migration from subventricular zone tissue explants at 224 uM after 48 hrs relative to control; assay type: functional
[7] = organism: Mus musculus; experiment: Inhibition of mouse neuroblast cell migration from subventricular zone tissue explants at 22 uM after 48 hrs relative to control; assay type: functional
[8] = organism: Mus musculus; experiment: as §1; assay type: functional
[9] = Inhibition of mouse neuroblast cell migration from subventricular zone tissue explants at 139 uM after 48 hrs relative to control; assay type: functional
[10] = organism: Mus musculus; experiment: Inhibition of mouse neuroblast cell migration from subventricular zone tissue explants at 13.9 uM after 48 hrs relative to control; assay type: functional
[11] = organism: Mus musculus; experiment: Reversal of inhibition of mouse neuroblast cell migration from subventricular zone tissue explants in presence of PR21; assay type: functional
[12] = Inhibition of mouse neuroblast cell migration from subventricular zone tissue explants at 68 uM after 48 hrs relative to control; assay type: functional
[13] = Inhibition of mouse neuroblast cell migration from subventricular zone tissue explants at 34 uM after 48 hrs relative to control; assay type: functional
[14] = organism: Mus musculus; experiment: Inhibition of mouse neuroblast cell migration from subventricular zone tissue explants at 6.8 uM after 48 hrs relative to control; assay type: functional
[15] = organism: Mus musculus; experiment: Inhibition of PR21-stimulated mouse neuroblast cell migration from subventricular zone tissue explants after 24 hrs; assay type: functional
[16] = organism: Mus musculus; experiment: Inhibition of mouse neuroblast cell migration from subventricular zone tissue explants after 24 hrs; assay type: functional
[17] = Inhibition of mouse neuroblast cell migration from subventricular zone tissue explants at 154 uM after 48 hrs relative to control; assay type: functional
[18] = organism: Mus musculus; experiment: Inhibition of mouse neuroblast cell migration from subventricular zone tissue explants at 100 uM after 48 hrs relative to control; assay type: functional
[19] = Inhibition of mouse neuroblast cell migration from subventricular zone tissue explants at 223 uM after 48 hrs relative to control; assay type: functional

Question: For `c1cc(CN2CCCNCCNCCCNCC2)cc(CN2CCCNCCNCCCNCC2)c1`, which inhibition at 63 µM [1] is on record?
Answer: 10%

Question: Which results are given for `c1ccc(CNCCSSCCNCc2ccccc2)cc1`?
Answer: inhibition at 123 µM [2]: 100%; Activity [3]: inactive

Question: With `C1CNCCNCCCNCCNC1` as the molecule, how does the inhibition at 250 µM [4] read?
Answer: 20%

Question: For `C1CNCCNCCCN(CCCCN2CCCNCCNCCCNCC2)CCNC1`, which Activity [5] is on record?
Answer: inactive

Question: What does the source list for `C1CNCCNCCNCCN1`?
Answer: inhibition at 224 µM [6]: 19%; Activity [7]: inactive

Question: For `C1CNCCNCCCN(CC2CCC(CN3CCCNCCNCCCNCC3)CC2)CCNC1` (configuration not stated), which Activity [8] is on record?
Answer: inactive

Question: Which inhibition at 139 µM [9] does the source give for `O=C(NCCSSCCNC(=O)c1ccccc1)c1ccccc1` here?
Answer: 100%

Question: And the Activity [10]?
Answer: inactive

Question: Which Activity [11] does the source give for `COc1ccccc1CNCCCCCCNCCSSCCNCCCCCCNCc1ccccc1OC` [BENEXTRAMINE] here?
Answer: Active

Question: What about the inhibition at 68 µM [12] of the same molecule?
Answer: 100%

Question: What about the inhibition at 34 µM [13] of the same molecule?
Answer: 45%

Question: What about the Activity [14] of the same molecule?
Answer: inactive

Question: And the Activity [15]?
Answer: Active

Question: And the Activity [16]?
Answer: Active

Question: Which Activity [8] does the source give for `c1ccc(CN2CCCNCCNCCCNCC2)c(CN2CCCNCCNCCCNCC2)c1` here?
Answer: inactive

Question: With `c1cc(CN2CCCNCCNCCCNCC2)ccc1CN1CCCNCCNCCCNCC1` as the molecule, how does the Activity [8] read?
Answer: inactive

Question: With `O=C(c1ccc(C(=O)N2CCCNCCNCCCNCC2)cc1)N1CCCNCCNCCCNCC1` as the molecule, how does the Activity [5] read?
Answer: inactive

Question: With `O=C(NCCCCCCNC(=O)c1ccccc1)c1ccccc1` as the molecule, how does the inhibition at 154 µM [17] read?
Answer: 50%

Question: Which Activity [18] does the source give for `CC(CNCCCCCN)SSC(C)CNCCCCCN` (configuration not stated) here?
Answer: inactive

Question: With `NCCSSCCN` [CYSTAMINE] as the molecule, how does the inhibition at 223 µM [19] read?
Answer: 33%
